Reference: US8653095B2, “Small molecules with antimalarial activity” (Radix Pharmaceuticals, Inc., priority 2011, dated 2014)
Values joined by “and” are separate entries in the source; they are usually repeats but may differ in a detail not shown here. Equal values may be shown once. “Also recorded” adds a separate entry of the source. Read-outs that look alike come from different tables or passages of the source.

Columns and labels:
[1] = test system: Plasmodium cynomolgi sporozoite; assay: Causal prophylactic activity in P. cynomolgi sporozoite-challenged Rhesus monkeys; format: in vivo; conditions: PO, 15 mg/kg, 1 daily for 3 days, one value per monkey
Description: Two monkeys were used in each test group. The control animals developed parasitemia in about 10 days after inoculation of about 1×10^6 P. cynomolgi sporozoites harvested from Anopheles dirus. All the monkeys received three treatments, once a day for three consecutive days beginning a day before (−1, 0,+1) the sporozoites challenge. The control monkeys (group 1) received HECT and the experimental animals received testing compound by using 8 Fr., 15-in. long nasogastric tubes.

[2] = test system: P. falciparum K1; assay: In vitro blood stage antimalarial efficacy, [3H]hypoxanthine uptake, strain K1; format: cell-based; conditions: Plasmodium falciparum, read-out: IC50
Method: (§1) In Vitro Blood Stage Antimalarial Efficacy Evaluation. New compounds were tested against a panel of strains of P. falciparum.
(§2) Test compounds were initially dissolved in DMSO and diluted 400 fold in RPMI 1640 culture medium supplemented with 25 mM Hepes, 32 mM NaHCO3 and 10% Albumax I (Gibco, NY). These solutions were subsequently serially diluted two-fold with a Beckman Biomek® 1000 Robot (Fullerton, Calif.) over 11 different concentrations. The parasites were exposed to serial dilutions of each compound for 48 hrs and incubated at 37° C. with 5% O2, 5% CO2 and 90% N2 prior to the addition of [^3H]hypoxanthine. After a further incubation of 18 hrs, parasite DNA was harvested from each microtiter well using Packard Filtermate™ 196 Harvester (Meriden, Conn.) onto glass filters. Uptake of [^3H]hypoxanthine was measured with a Packard TopCount Liquid Scintillation Counter (Packard Instrument Co.).

[3] = test system: Plasmodium berghei; assay: Oral prophylactic test in mice; format: in vivo; conditions: for Mice infected and treated/Mice surviving day 60: oral; for Protection from malaria (oral prophylactic activity): mice, single dose of 0.5 mg/kg within 2 days pre-infection through 2 days post-infection
Method: Derivative compounds were also tested for oral prophylactic activity.
CD-I male or female mice, 5 weeks of age, were infected with 5×10^4 parasitized erythrocytes of Plasmodium berghei strain. Blood films were taken on day +6 and weekly thereafter until day+30. […]

[4] = test system: P. falciparum V1S; assay: microbe, parasite or virus in culture; format: cell-based; conditions: Plasmodium falciparum
Method: as §1, §2

[5] = test system: rodent P. berghei; conditions: for Primary therapeutic index / Secondary therapeutic index: Sprague-Dawley, rat, in vivo, po; for MCureD (minimum curative dose): rodent P. berghei, administered orally
Method: Antimalarial potency was measured by determination of the MCD (minimum clearance dose), a commonly used efficacy measurement. The primary therapeutic indices, which were obtained by using the MCDs as the effective parameters, were calculated. A secondary therapeutic indices measure of antimalarial potency was determined by use of the dose for the MCureD (minimum curative dose).

[6] = test system: P. berghei NK-65; assay: In vivo efficacy in Swiss mice infected with P. berghei; conditions: Plasmodium berghei
[7] = test system: P. falciparum 3D7; assay: In vitro blood stage antimalarial efficacy, [3H]hypoxanthine uptake, strain 3D7; format: cell-based; conditions: Plasmodium falciparum, read-out: IC50
Method: as §1, §2

[8] = test system: Plasmodium cynomolgi; assay: Radical curative activity in relapsed Rhesus monkeys; format: in vivo; conditions: for Monkeys cured: co-administered with chloroquine; for Days post-treatment (relapse) / Results (radical curative test): with CQ 10 mg/kg/day for 7 days, one value per monkey
Description: Compounds with antihypnozoite activity will delay the relapse or radically cure the infection. […] Relapse was expected in the control group. Relapse in the treated group indicates failure of the test compounds. […] After standard treatment, blood smears were monitored daily for 4 consecutive days of negative results and 2 times weekly for 2 weeks.

[9] = test system: P. falciparum TM4; assay: In vitro blood stage antimalarial efficacy, [3H]hypoxanthine uptake, strain TM4; format: cell-based; conditions: Plasmodium falciparum; read-out: IC50
Method: as §1, §2

[10] = day of treatment 1, dose 0.5 mg/kg
[11] = day of treatment 1, dose 2 mg/kg
[12] = day of treatment 1, dose 8 mg/kg
[13] = day of treatment 1, dose 32 mg/kg
[14] = day of treatment 2, dose 0.5 mg/kg
[15] = day of treatment 2, dose 2 mg/kg
[16] = day of treatment 2, dose 8 mg/kg
[17] = day of treatment 2, dose 32 mg/kg
[18] = day of treatment −1, dose 0.5 mg/kg
[19] = day of treatment −1, dose 2 mg/kg
[20] = day of treatment −1, dose 8 mg/kg
[21] = day of treatment −1, dose 32 mg/kg
[22] = day of treatment −2, dose 0.5 mg/kg
[23] = day of treatment −2, dose 2 mg/kg
[24] = day of treatment −2, dose 8 mg/kg
[25] = day of treatment −2, dose 32 mg/kg
[26] = 96 h, P. berghei NK-65, Swiss mice, oral once daily for 4 days, read-out: ED50
[27] = read-out: ED50 (the dose leading to 50% parasite growth inhibition compared to the blank control)
[28] = Drug 2 at 15 mg/kg PO 1 daily for 3 days
[29] = Drug 2 at 30 mg/kg PO 1 daily for 3 days

SMILES	Parasite patency (days postinoculation) [1]	IC50 [2] [nM]	Mice infected and treated/Mice surviving day 60 [3, 10]	Mice infected and treated/Mice surviving day 60 [3, 11]	Mice infected and treated/Mice surviving day 60 [3, 12]	Mice infected and treated/Mice surviving day 60 [3, 13]	Mice infected and treated/Mice surviving day 60 [3, 14]	Mice infected and treated/Mice surviving day 60 [3, 15]	Mice infected and treated/Mice surviving day 60 [3, 16]	Mice infected and treated/Mice surviving day 60 [3, 17]	Mice infected and treated/Mice surviving day 60 [3, 18]	Mice infected and treated/Mice surviving day 60 [3, 19]	Mice infected and treated/Mice surviving day 60 [3, 20]	Mice infected and treated/Mice surviving day 60 [3, 21]	Mice infected and treated/Mice surviving day 60 [3, 22]	Mice infected and treated/Mice surviving day 60 [3, 23]	Mice infected and treated/Mice surviving day 60 [3, 24]	Mice infected and treated/Mice surviving day 60 [3, 25]	Protection from malaria (oral prophylactic activity) [3]	IC50 [4] [nM]	further results
CC[C@@H](N)[C@H](O)[C@H](O)[C@H](COC)[C@@H]1CC[C@@]23CC24c2nc5ccc(OC)cc5cc2C(=O)N[C@H]4CN13 (stereo partly drawn) [Formula B]	41 days and 55 days	0.22 ± 0.05	5/5	5/5	5/5	5/5	5/5	5/5	5/5	5/5	5/5	5/5	5/5	5/5	5/5	5/5	5/5	5/5	completely protected	0.26 ± 0.05	Primary therapeutic index [5]: 237; Secondary therapeutic index [5]: 53; MCureD (minimum curative dose) [5]: 14.2 mg/kg; ED50 [6, 26]: 0.13 mg/kg; ED50 [6, 27]: < 1 mg/kg; IC50 [7]: 0.19 ± 0.04 nM; Monkeys cured ([8]; 15 mg/kg/day level): one out of two monkeys; Monkeys cured ([8]; 30 mg/kg/day level): all monkeys; Days post-treatment (relapse) [8, 28]: 42 days and no relapse; Results (radical curative test) [8, 28]: delayed relapse; also recorded: radical curative; Days post-treatment (relapse) [8, 29]: no relapse; Results (radical curative test) [8, 29]: radical curative; IC50 [9]: 0.23 ± 0.04 nM
COC[C@@H]([C@@H](O)[C@@H](O)[C@H](N)Cc1ccccc1)[C@@H]1CC[C@@]23CC24c2nc5ccc(OC)cc5cc2C(=O)N[C@H]4CN13 (stereo partly drawn) [Formula C]	48 days and 64 days	0.25 ± 0.04	5/5	5/5	5/5	5/5	5/5	5/5	5/5	5/5	5/5	5/5	5/5	5/5	5/5	5/5	5/5	5/5	completely protected	0.12 ± 0.03	Primary therapeutic index [5]: 290; Secondary therapeutic index [5]: 72; MCureD (minimum curative dose) [5]: 9.82 mg/kg; ED50 [6, 26]: 0.11 mg/kg; ED50 [6, 27]: < 1 mg/kg; IC50 [7]: 0.22 ± 0.05 nM; Monkeys cured ([8]; 15 mg/kg/day level): one out of two monkeys; Monkeys cured ([8]; 30 mg/kg/day level): all monkeys; Days post-treatment (relapse) [8, 28]: 53 days and no relapse; Results (radical curative test) [8, 28]: delayed relapse; also recorded: radical curative; Days post-treatment (relapse) [8, 29]: no relapse; Results (radical curative test) [8, 29]: radical curative; IC50 [9]: 0.31 ± 0.07 nM
